Our source for the KD and binding values is PMC11434422 (2024).

SMILES strings stand for the structures.

Assay [1] relates to c-MYC-G3 (c-MYC-G3-compDNA1 hybridized to anchorDNA1) (DNA, other) TGGGGAGGGTGGGGAATTTTTTTTTCGTGTATTGCTC
Briefly: SPR, multi-cycle kinetics, 1:1 fit. The conditions noted are these: 150 mM Li+, 10 mM Ca2+; HBS-EP pH 7.4, 10 mM HEPES, 3 mM EDTA, 0.05% P20, 1% DMSO; hemin 10-100 µM. Background: SPR reads the build-up and loss of mass on a sensor chip optically.

In assay [2] the test system is ssDNA (ssDNA-compDNA2 hybridized to anchorDNA2) (DNA, single strand) TGTGTAGTGCGGGTTTTTTTTTTGAGATGCAGATCCTGT
Briefly: SPR, multi-cycle injections. The conditions noted are these: 150 mM Li+, 10 mM Ca2+; HBS-EP pH 7.4, 10 mM HEPES, 3 mM EDTA, 0.05% P20, 1% DMSO; hemin 10-100 µM; highest hemin 100 µM; legend: minimal binding.

As a reminder, the KD is the concentration at which binding is half-saturated. Read a high KD as weaker binding.

Compound `C=CC1=C(C)C2=Cc3c(C=C)c(C)c4[n]3[Fe]([Cl])[n]3c(c(C)c(CCC(=O)O)c3=CC3=NC(=C4)C(C)=C3CCC(=O)O)=CC1=N2` gave a KD in assay [1] of 263 ± 3 µM. Besides, in assay [2], the binding result was “no”.
